Measured values published in paper PMC9239272 (mBio, 2022).

Legend:
[1] = test system: SARS2 M^pro M49D; type: cell-based, SARS-CoV-2
[2] = test system: SARS2 M^pro Q189N; type: cell-based, SARS-CoV-2
[3] = test system: SARS2 M^pro P168G; type: cell-based, SARS-CoV-2
[4] = test system: SARS2 M^pro P168S; type: cell-based, SARS-CoV-2
[5] = test system: SARS2 M^pro Q189E; type: cell-based, SARS-CoV-2
[6] = test system: SARS2 M^pro M49I; type: cell-based, SARS-CoV-2
[7] = biological target: P168G SARS2 M^pro (Severe acute respiratory syndrome coronavirus 2, UniProt P0DTD1, P3431G); type: biochemical, SARS-CoV-2
[8] = biological target: P168S SARS2 M^pro (Severe acute respiratory syndrome coronavirus 2, UniProt P0DTD1, P3431S); type: biochemical, SARS-CoV-2
[9] = test system: SARS2 M^pro P168G; type: cell-based, SARS-CoV-2; remark: listed apart in the source
[10] = test system: SARS2 M^pro P168S; type: cell-based, SARS-CoV-2; remark: listed apart in the source
[11] = test system: SARS2 H132 (Omicron) M^pro; type: cell-based, SARS-CoV-2

Molecule	effect of amino acid change on inhibition [1]	effect of amino acid change on inhibition [2]	average increase in luciferase signal over wild type [3]	effect of amino acid change on inhibition [3]	average increase in luciferase signal over wild type [4]	effect of amino acid change on inhibition [4]	effect of amino acid change on inhibition [5]	effect of amino acid change on inhibition [6]	lower IC50 than wild-type Mpro [7]	lower IC50 than wild-type Mpro [8]	eGFP signal localization compared with wild-type construct [9]	eGFP signal localization compared with wild-type construct [10]	sensitivity of Omicron (P132H) Mpro [11]	decrease of inhibitor efficacy versus wild type [1]	decrease of inhibitor efficacy versus wild type [2]
CC(C)(C)NC(=O)N[C@H](C(=O)N1C[C@H]2[C@@H]([C@H]1C(=O)NC(CC1CCC1)C(=O)C(N)=O)C2(C)C)C(C)(C)C (stereo partly shown) [boceprevir]	slight resistance	slight resistance	4 fold	hypersensitivity	4 fold	hypersensitivity	slight resistance	slight resistance	approximately 10 fold	approximately 10 fold	increase in membrane-tethered cytosolic eGFP signal	increase in membrane-tethered cytosolic eGFP signal	–	–	–
CC(C)(C)[C@H](NC(=O)C(F)(F)F)C(=O)N1C[C@H]2[C@@H]([C@H]1C(=O)N[C@H](C#N)C[C@@H]1CCNC1=O)C2(C)C [nirmatrelvir]	–	–	–	–	–	–	–	–	–	–	–	–	retains sensitivity	–	–
GC376	–	–	–	minimal effects	–	minimal effects	minimal effects	minimal effects	–	–	–	–	–	2.1 fold	1.8 fold
